Source: patent publication US20040087633A1, “Methylidene oxazolidinone compound and preparation method thereof” (Korea Institute of Science and Technology, priority 2002, published 2004)
In brackets after ≈: the same amount, converted by molar mass.

Tests used:
Test in all cases: Anti-microbial activity test in vitro (agar dilution MIC)
VRE C6488 = type: cell-based, Enterococcus faecium; details: VRE C6488; Agar Dilution method, Mueller Hinton Agar, 18 hours at 37° C.
Outline: (§1)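 MIC in μg/ml, scored by eye after 18 h at 37 °C on Mueller Hinton agar plates carrying twofold stepwise compound dilutions.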

VRE C6487 = type: cell-based, Enterococcus faecium; details: VRE C6487; Agar Dilution method, Mueller Hinton Agar, 18 hours at 37° C.
Outline: as §1

MRSA C5100 = type: cell-based, Staphylococcus aureus; details: MRSA C5100; Agar Dilution method, Mueller Hinton Agar, 18 hours at 37° C.
Outline: as §1

MRSA C6068 = type: cell-based, Staphylococcus aureus; details: MRSA C6068; Agar Dilution method, Mueller Hinton Agar, 18 hours at 37° C.
Outline: as §1

MRSA C2207 = type: cell-based, Staphylococcus aureus; details: MRSA C2207; Agar Dilution method, Mueller Hinton Agar, 18 hours at 37° C.
Outline: as §1

CRSA C1062 = type: cell-based, Staphylococcus aureus; details: CRSA C1062; Agar Dilution method, Mueller Hinton Agar, 18 hours at 37° C.
Outline: as §1

CRSA C6043 = type: cell-based, Staphylococcus aureus; details: CRSA C6043; Agar Dilution method, Mueller Hinton Agar, 18 hours at 37° C.
Outline: as §1

MSSA C7142 = type: cell-based, Staphylococcus aureus; details: MSSA C7142; Agar Dilution method, Mueller Hinton Agar, 18 hours at 37° C.
Outline: as §1

MSSA C2214 = type: cell-based, Staphylococcus aureus; details: MSSA C2214; Agar Dilution method, Mueller Hinton Agar, 18 hours at 37° C.
Outline: as §1

S. epidermidis ATCC12228 = type: cell-based; details: S. epidermidis ATCC12228; Agar Dilution method, Mueller Hinton Agar, 18 hours at 37° C.
Outline: as §1

S. aureus ATCC 29213 = type: cell-based; details: Agar Dilution method, Mueller Hinton Agar, 18 hours at 37° C.
Outline: as §1

S. pyogenes C6003 = type: cell-based; details: S. pyogenes C6003; Agar Dilution method, Mueller Hinton Agar, 18 hours at 37° C.
Outline: as §1

S. epidermidis C2230 = type: cell-based; details: S. epidermidis C2230; Agar Dilution method, Mueller Hinton Agar, 18 hours at 37° C.
Outline: as §1

E. faecalis C6291 = type: cell-based; details: E. faecalis C6291; Agar Dilution method, Mueller Hinton Agar, 18 hours at 37° C.
Outline: as §1

S. epidermidis C2235 = type: cell-based; details: S. epidermidis C2235; Agar Dilution method, Mueller Hinton Agar, 18 hours at 37° C.
Outline: as §1

E. faecium C6301 = type: cell-based; details: E. faecium C6301; Agar Dilution method, Mueller Hinton Agar, 18 hours at 37° C.
Outline: as §1

S. pyogenes C6012 = type: cell-based; details: S. pyogenes C6012; Agar Dilution method, Mueller Hinton Agar, 18 hours at 37° C.
Outline: as §1

E. faecalis C6288 = type: cell-based; details: E. faecalis C6288; Agar Dilution method, Mueller Hinton Agar, 18 hours at 37° C.
Outline: as §1

E. faecium C2252 = type: cell-based; details: E. faecium C2252; Agar Dilution method, Mueller Hinton Agar, 18 hours at 37° C.
Outline: as §1

S. pyogenes ATCC8668 = type: cell-based; details: S. pyogenes ATCC8668; Agar Dilution method, Mueller Hinton Agar, 18 hours at 37° C.
Outline: as §1

E. faecalis ATCC29212 = type: cell-based; details: E. faecalis ATCC29212; Agar Dilution method, Mueller Hinton Agar, 18 hours at 37° C.
Outline: as §1

Row | Minimum inhibition concentration (MIC) (VRE C6488) [µg/mL] | Minimum inhibition concentration (MIC) (VRE C6487) [µg/mL] | Minimum inhibition concentration (MIC) (MRSA C5100) [µg/mL] | Minimum inhibition concentration (MIC) (MRSA C6068) [µg/mL] | Minimum inhibition concentration (MIC) (MRSA C2207) [µg/mL] | Minimum inhibition concentration (MIC) (CRSA C1062) [µg/mL] | Minimum inhibition concentration (MIC) (CRSA C6043) [µg/mL] | Minimum inhibition concentration (MIC) (MSSA C7142) [µg/mL] | Minimum inhibition concentration (MIC) (MSSA C2214) [µg/mL] | Minimum inhibition concentration (MIC) (S. epidermidis ATCC12228) [µg/mL] | Minimum inhibition concentration (MIC) (S. aureus ATCC 29213) [µg/mL] | Minimum inhibition concentration (MIC) (S. pyogenes C6003) [µg/mL] | Minimum inhibition concentration (MIC) (S. epidermidis C2230) [µg/mL] | Minimum inhibition concentration (MIC) (E. faecalis C6291) [µg/mL] | Minimum inhibition concentration (MIC) (S. epidermidis C2235) [µg/mL] | Minimum inhibition concentration (MIC) (E. faecium C6301) [µg/mL] | Minimum inhibition concentration (MIC) (S. pyogenes C6012) [µg/mL] | Minimum inhibition concentration (MIC) (E. faecalis C6288) [µg/mL] | Minimum inhibition concentration (MIC) (E. faecium C2252) [µg/mL] | Minimum inhibition concentration (MIC) (S. pyogenes ATCC8668) [µg/mL] | SMILES | further results
1 | 4 (≈ 10.2 µM) | 4 (≈ 10.2 µM) | 4 (≈ 10.2 µM) | 4 (≈ 10.2 µM) | 8 (≈ 20.5 µM) | 8 (≈ 20.5 µM) | 8 (≈ 20.5 µM) | 8 (≈ 20.5 µM) | 8 (≈ 20.5 µM) | 1 (≈ 2.56 µM) | 8 (≈ 20.5 µM) | 4 (≈ 10.2 µM) | 4 (≈ 10.2 µM) | 4 (≈ 10.2 µM) | 4 (≈ 10.2 µM) | 4 (≈ 10.2 µM) | 1 (≈ 2.56 µM) | 4 (≈ 10.2 µM) | 4 (≈ 10.2 µM) | 2 (≈ 5.12 µM) | CC(=O)NC[C@H]1CN(c2ccc(N3CCC(=CC=NO)CC3)c(F)c2)C(=O)O1 [Compound 18, N-[[(5S)-3-[3-fluoro-4-(4-(2-hydroxyiminoethylidene)-piperidinyl)phenyl]-2-oxo-5-oxazolidinyl]methyl]acetamide] | Minimum inhibition concentration (MIC) (E. faecalis ATCC29212): 8 µg/mL (≈ 20.5 µM)
2 | 4 (≈ 8.81 µM) | 2 (≈ 4.41 µM) | 16 (≈ 35.3 µM) | 16 (≈ 35.3 µM) | 16 (≈ 35.3 µM) | 16 (≈ 35.3 µM) | 16 (≈ 35.3 µM) | 8 (≈ 17.6 µM) | 8 (≈ 17.6 µM) | 2 (≈ 4.41 µM) | 32 (≈ 70.5 µM) | 2 (≈ 4.41 µM) | 4 (≈ 8.81 µM) | 4 (≈ 8.81 µM) | 4 (≈ 8.81 µM) | 2 (≈ 4.41 µM) | 8 (≈ 17.6 µM) | 8 (≈ 17.6 µM) | 4 (≈ 8.81 µM) | 2 (≈ 4.41 µM) | CCOC(=O)C(Cl)=C1CCN(c2ccc(N3C[C@H](CNC(C)=O)OC3=O)cc2F)CC1 [Compound 15, N-[[(5S)-3-[3-fluoro-4-((4-(1-ethoxycarbonyl-1-chloro)-methylidene)piperidinyl)phenyl]-2-oxo-5-oxazolidinyl]methyl]acetamide] | Minimum inhibition concentration (MIC) (E. faecalis ATCC29212): 8 µg/mL (≈ 17.6 µM)
3 | 4 (≈ 10.2 µM) | 4 (≈ 10.2 µM) | 8 (≈ 20.4 µM) | 4 (≈ 10.2 µM) | 16 (≈ 40.9 µM) | 16 (≈ 40.9 µM) | 8 (≈ 20.4 µM) | 16 (≈ 40.9 µM) | 16 (≈ 40.9 µM) | 2 (≈ 5.11 µM) | 8 (≈ 20.4 µM) | 8 (≈ 20.4 µM) | 4 (≈ 10.2 µM) | 8 (≈ 20.4 µM) | 4 (≈ 10.2 µM) | 4 (≈ 10.2 µM) | 2 (≈ 5.11 µM) | 4 (≈ 10.2 µM) | 4 (≈ 10.2 µM) | 2 (≈ 5.11 µM) | CC(=O)NC[C@H]1CN(c2ccc(N3CCC(=CC(C)O)CC3)c(F)c2)C(=O)O1 (stereo partly drawn) [Compound 22, N-[[(5S)-3-[3-fluoro-4-(4-(2-hydroxypropylidene)-piperidinyl)-phenyl]-2-oxo-5-oxazolidinyl]methyl]acetamide] | Minimum inhibition concentration (MIC) (E. faecalis ATCC29212): 8 µg/mL (≈ 20.4 µM)

Second part, the compound before the results:

Row | SMILES | Minimum inhibition concentration (MIC) (VRE C6488) [µg/mL] | Minimum inhibition concentration (MIC) (VRE C6487) [µg/mL] | Minimum inhibition concentration (MIC) (MRSA C5100) [µg/mL] | Minimum inhibition concentration (MIC) (MRSA C6068) [µg/mL] | Minimum inhibition concentration (MIC) (MRSA C2207) [µg/mL] | Minimum inhibition concentration (MIC) (CRSA C1062) [µg/mL] | Minimum inhibition concentration (MIC) (CRSA C6043) [µg/mL] | Minimum inhibition concentration (MIC) (MSSA C7142) [µg/mL] | Minimum inhibition concentration (MIC) (MSSA C2214) [µg/mL] | Minimum inhibition concentration (MIC) (S. epidermidis ATCC12228) [µg/mL] | Minimum inhibition concentration (MIC) (S. aureus ATCC 29213) [µg/mL] | Minimum inhibition concentration (MIC) (S. pyogenes C6003) [µg/mL] | Minimum inhibition concentration (MIC) (S. epidermidis C2230) [µg/mL] | Minimum inhibition concentration (MIC) (E. faecalis C6291) [µg/mL] | Minimum inhibition concentration (MIC) (S. epidermidis C2235) [µg/mL] | Minimum inhibition concentration (MIC) (E. faecium C6301) [µg/mL] | Minimum inhibition concentration (MIC) (S. pyogenes C6012) [µg/mL] | Minimum inhibition concentration (MIC) (E. faecalis C6288) [µg/mL] | Minimum inhibition concentration (MIC) (E. faecium C2252) [µg/mL] | Minimum inhibition concentration (MIC) (S. pyogenes ATCC8668) [µg/mL] | further results
4 | CC(=O)NC[C@H]1CN(c2ccc(N3CCC(=CC(C)OC(=O)CCl)CC3)c(F)c2)C(=O)O1 (stereo partly drawn) [Compound 24, N-[[(5S)-3-[3-fluoro-4-(4-(2-(chloroacetoxy)propylidene)-piperidinyl)-phenyl]-2-oxo-5-oxazolidinyl]methyl]acetamide] | 4 (≈ 8.55 µM) | 4 (≈ 8.55 µM) | 16 (≈ 34.2 µM) | 8 (≈ 17.1 µM) | 16 (≈ 34.2 µM) | 8 (≈ 17.1 µM) | 16 (≈ 34.2 µM) | 16 (≈ 34.2 µM) | 16 (≈ 34.2 µM) | 2 (≈ 4.27 µM) | 16 (≈ 34.2 µM) | 8 (≈ 17.1 µM) | 8 (≈ 17.1 µM) | 16 (≈ 34.2 µM) | 8 (≈ 17.1 µM) | 8 (≈ 17.1 µM) | 2 (≈ 4.27 µM) | 16 (≈ 34.2 µM) | 16 (≈ 34.2 µM) | 2 (≈ 4.27 µM) | Minimum inhibition concentration (MIC) (E. faecalis ATCC29212): 8 µg/mL (≈ 17.1 µM)
5 | CC(=S)NC[C@H]1CN(c2ccc(N3CCC(=CC#N)CC3)c(F)c2)C(=O)O1 [Compound 26, N-[[(5S)-3-[3-fluoro-4-(4-(cyanomethylidene)piperidinyl)-phenyl]-2-oxo-5-oxazolidinyl]methyl]thioacetamide] | 0.5 (≈ 1.29 µM) | 0.5 (≈ 1.29 µM) | 1 (≈ 2.57 µM) | 2 (≈ 5.15 µM) | 2 (≈ 5.15 µM) | 2 (≈ 5.15 µM) | 2 (≈ 5.15 µM) | 2 (≈ 5.15 µM) | 2 (≈ 5.15 µM) | 0.5 (≈ 1.29 µM) | 2 (≈ 5.15 µM) | 0.25 (≈ 0.644 µM) | 1 (≈ 2.57 µM) | 1 (≈ 2.57 µM) | 0.5 (≈ 1.29 µM) | 1 (≈ 2.57 µM) | 0.25 (≈ 0.644 µM) | 1 (≈ 2.57 µM) | 1 (≈ 2.57 µM) | 0.5 (≈ 1.29 µM) | Minimum inhibition concentration (MIC) (E. faecalis ATCC29212): 2 µg/mL (≈ 5.15 µM)
